# In paper PMC7751403, “Development of 2-oindolin-3-ylidene-indole-3-carbohydrazide derivatives as novel apoptotic and anti-proliferative agents towards colorectal cancer cells” (Journal of Enzyme Inhibition and Medicinal Chemistry, 2020):
# System: SW-620 colorectal cancer cell line
# Experiment: MTT cell viability assay, SW-620 colorectal cancer cells
# Format: cell-based, human
# Settings: Homo sapiens, SW-620, MTT, compounds 24 h (5FU 72 h), three separate experiments; read-out: IC50 (nM) SW-620
# Description: (§1) HT29 and SW620 colorectal cancer cell lines and HFF-1 fibroblast (ATCC, Rockville, USA) were used. HT29 cells were cultured and maintained in Dulbecco’s Modified Eagle’s Medium (DMEM) (GIBCO, by Thermo Fischer Scientific, NY, USA) supplemented with 10% foetal bovine serum (FBS), 100 units/mL penicillin, and 100 µg streptomycin. SW620 and HFF-1 cells were cultured in Roswell Park Memorial Institute medium (RPMI-1640) (GIBCO, by Thermo scientific, NY, USA) supplemented with 10% FBS and 1% penicillin and streptomycin (Napolitano et al., 2015). All cultures were incubated at 37 °C and humidified atmosphere of 5% CO2.
# (§2) The cytotoxicity effect of compounds on the colorectal cancer cell lines, HT29 and SW620 in addition to the normal human fibroblasts was measured by MTT (3–(4, 5-dimethylthiazol-2-yl)-2,5-diphenyltetrazolium bromide) (Sigma-Aldrich, St. Louis, MO, USA) as previously described. Briefly, cells were seeded in 96 well culture plates at 5000/well for HT29 and 10,000/well for SW620 for 24 h. Cells were then incubated with different compounds from WAG1 series (1–15) 24 h at 37 °C and humidified 5% CO2 incubator. Freshly prepared 10 µl of 3–(4,5-dimethylthiazol-2-yl)-2,5-diphenyltetrazolium bromide (MTT 5 mM) solution were added to the cells and further incubated for 2 h. Thereafter, 100 µl of dimethyl sulphoxide (DMSO) were added in each well and the crystals were dissolved through careful pipetting. In certain experiment, cells were treated different concentration of 5FU for 72 h. The absorbance of the product was measured at 540 nm using a Synergy™ 2 multi-mode microplate reader (Biotech, VA, USA). The experiments were performed in triplicate for each condition.
row,SMILES,IC50
1,"O=C1Nc2ccc([N+](=O)[O-])cc2C1=NNC(=O)c1c[nH]c2ccccc12 [Compound 7h, N'-(5-Nitro-2-oxoindolin-3-ylidene)-1H-indole-3-carbohydrazide]",190 nM
2,"O=C1Nc2c(F)cccc2C1=NNC(=O)c1c[nH]c2ccccc12 [Compound 7i, N'-(7-Fluoro-2-oxoindolin-3-ylidene)-1H-indole-3-carbohydrazide]",468 nM
3,"Cc1cc(C)c2c(c1)C(=NNC(=O)c1c[nH]c3ccccc13)C(=O)N2 [Compound 7j, N'-(5,7-Dimethyl-2-oxoindolin-3-ylidene)-1H-indole-3-carbohydrazide]",187 nM
4,"CN1C(=O)C(=NNC(=O)c2c[nH]c3ccccc23)c2ccccc21 [Compound 9a, N'-(1-Methyl-2-oxoindolin-3-ylidene)-1H-indole-3-carbohydrazide]",260 nM
5,"CCCN1C(=O)C(=NNC(=O)c2c[nH]c3ccccc23)c2ccccc21 [Compound 9b, N'-(2-Oxo-1-propylindolin-3-ylidene)-1H-indole-3-carbohydrazide]",105 nM
6,"O=C(NN=C1C(=O)N(Cc2ccccc2)c2ccccc21)c1c[nH]c2ccccc12 [Compound 9c, N'-(1-Benzyl-2-oxoindolin-3-ylidene)-1H-indole-3-carbohydrazide]",283 nM
7,"CCCN1C(=O)C(=NNC(=O)c2c[nH]c3ccccc23)c2cc(Cl)ccc21 [Compound 9d, N'-(5-Chloro-2-oxo-1-propylindolin-3-ylidene)-1H-indole-3-carbohydrazide]",290 nM
8,"CCCN1C(=O)C(=NNC(=O)c2c[nH]c3ccccc23)c2cc(Br)ccc21 [Compound 9e, N'-(5-Bromo-2-oxo-1-propylindolin-3-ylidene)-1H-indole-3-carbohydrazide]",414 nM

# System: not given
# Experiment: not given
# Settings: not given
row,SMILES,melting point
1,"O=C1Nc2ccc([N+](=O)[O-])cc2C1=NNC(=O)c1c[nH]c2ccccc12 [Compound 7h, N'-(5-Nitro-2-oxoindolin-3-ylidene)-1H-indole-3-carbohydrazide]",> 300 °C
2,"O=C1Nc2c(F)cccc2C1=NNC(=O)c1c[nH]c2ccccc12 [Compound 7i, N'-(7-Fluoro-2-oxoindolin-3-ylidene)-1H-indole-3-carbohydrazide]",> 300 °C
3,"Cc1cc(C)c2c(c1)C(=NNC(=O)c1c[nH]c3ccccc13)C(=O)N2 [Compound 7j, N'-(5,7-Dimethyl-2-oxoindolin-3-ylidene)-1H-indole-3-carbohydrazide]",> 300 °C
4,"CN1C(=O)C(=NNC(=O)c2c[nH]c3ccccc23)c2ccccc21 [Compound 9a, N'-(1-Methyl-2-oxoindolin-3-ylidene)-1H-indole-3-carbohydrazide]",273 to 275 °C
5,"CCCN1C(=O)C(=NNC(=O)c2c[nH]c3ccccc23)c2ccccc21 [Compound 9b, N'-(2-Oxo-1-propylindolin-3-ylidene)-1H-indole-3-carbohydrazide]",248 to 250 °C
6,"O=C(NN=C1C(=O)N(Cc2ccccc2)c2ccccc21)c1c[nH]c2ccccc12 [Compound 9c, N'-(1-Benzyl-2-oxoindolin-3-ylidene)-1H-indole-3-carbohydrazide]",274 to 276 °C
7,"CCCN1C(=O)C(=NNC(=O)c2c[nH]c3ccccc23)c2cc(Cl)ccc21 [Compound 9d, N'-(5-Chloro-2-oxo-1-propylindolin-3-ylidene)-1H-indole-3-carbohydrazide]",262 to 263 °C
8,"CCCN1C(=O)C(=NNC(=O)c2c[nH]c3ccccc23)c2cc(Br)ccc21 [Compound 9e, N'-(5-Bromo-2-oxo-1-propylindolin-3-ylidene)-1H-indole-3-carbohydrazide]",255 to 256 °C

# System: HT-29 colorectal cancer cell line
# Experiment: MTT cell viability assay, HT-29 colorectal cancer cells
# Format: cell-based, human
# Settings: Homo sapiens, HT-29, MTT, compounds 24 h (5FU 72 h), three separate experiments; read-out: IC50 (nM) HT-29
# Description: as §1, §2
row,SMILES,IC50
1,"O=C1Nc2ccc([N+](=O)[O-])cc2C1=NNC(=O)c1c[nH]c2ccccc12 [Compound 7h, N'-(5-Nitro-2-oxoindolin-3-ylidene)-1H-indole-3-carbohydrazide]",132 nM
2,"O=C1Nc2c(F)cccc2C1=NNC(=O)c1c[nH]c2ccccc12 [Compound 7i, N'-(7-Fluoro-2-oxoindolin-3-ylidene)-1H-indole-3-carbohydrazide]",140 nM
3,"Cc1cc(C)c2c(c1)C(=NNC(=O)c1c[nH]c3ccccc13)C(=O)N2 [Compound 7j, N'-(5,7-Dimethyl-2-oxoindolin-3-ylidene)-1H-indole-3-carbohydrazide]",200 nM
4,"CN1C(=O)C(=NNC(=O)c2c[nH]c3ccccc23)c2ccccc21 [Compound 9a, N'-(1-Methyl-2-oxoindolin-3-ylidene)-1H-indole-3-carbohydrazide]",176 nM
5,"CCCN1C(=O)C(=NNC(=O)c2c[nH]c3ccccc23)c2ccccc21 [Compound 9b, N'-(2-Oxo-1-propylindolin-3-ylidene)-1H-indole-3-carbohydrazide]",525 nM
6,"O=C(NN=C1C(=O)N(Cc2ccccc2)c2ccccc21)c1c[nH]c2ccccc12 [Compound 9c, N'-(1-Benzyl-2-oxoindolin-3-ylidene)-1H-indole-3-carbohydrazide]",405 nM
7,"CCCN1C(=O)C(=NNC(=O)c2c[nH]c3ccccc23)c2cc(Cl)ccc21 [Compound 9d, N'-(5-Chloro-2-oxo-1-propylindolin-3-ylidene)-1H-indole-3-carbohydrazide]",166 nM
8,"CCCN1C(=O)C(=NNC(=O)c2c[nH]c3ccccc23)c2cc(Br)ccc21 [Compound 9e, N'-(5-Bromo-2-oxo-1-propylindolin-3-ylidene)-1H-indole-3-carbohydrazide]",290 nM

# Same assay, conditions: ratio of IC50 values versus 5FU
row,SMILES,fold more active than 5FU against HT-29
1,"O=C1Nc2ccc([N+](=O)[O-])cc2C1=NNC(=O)c1c[nH]c2ccccc12 [Compound 7h, N'-(5-Nitro-2-oxoindolin-3-ylidene)-1H-indole-3-carbohydrazide]",approximately 35 fold
